Measurements as given in patent publication US12410160B2 (Gilead Sciences, Inc., priority 2021, dated 2025).

What was measured:
[1] = target: human KHK-C (Homo sapiens (Human), UniProt P50053); assay: KHK Biochemical Assay (IC50), ADP-Glo, KHK-C; conditions: average of at least two separate assays
Summary of the method: (§1)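 His-tagged enzyme expressed in BL21 (DE3), Ni-NTA purified. Compounds, serially diluted 1:3 in DMSO, pre-incubated 30 min with enzyme in 50 mM Hepes pH 7.4, 140 mM KCl, 5 mM MgCl2, 0.01% Triton-X, then ATP and fructose added; 4 h at room temperature. ADP formation read by ADP-Glo luminescence.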

[2] = target: human KHK-A (Homo sapiens (Human), UniProt P50053); assay: KHK Biochemical Assay (IC50), ADP-Glo, KHK-A; conditions: average of at least two separate assays
Summary of the method: as §1

[3] = target: KHK-C expressed in NRK-52E cells (Homo sapiens (Human), UniProt P50053); assay: KHK-C Cell-based Assay (EC50), NRK CTG, fructose-mediated ATP-depletion
Chain of KHK-C expressed in NRK-52E cells (P50053 whole entry): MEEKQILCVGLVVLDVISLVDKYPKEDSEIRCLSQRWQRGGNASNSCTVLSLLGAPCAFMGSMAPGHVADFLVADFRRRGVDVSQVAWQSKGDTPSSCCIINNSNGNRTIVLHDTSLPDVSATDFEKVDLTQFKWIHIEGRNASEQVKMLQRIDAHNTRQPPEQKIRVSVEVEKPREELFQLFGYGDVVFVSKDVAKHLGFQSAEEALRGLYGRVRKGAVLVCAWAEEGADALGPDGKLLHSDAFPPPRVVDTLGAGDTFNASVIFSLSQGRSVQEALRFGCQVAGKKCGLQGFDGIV

Chain of human KHK-C (P50053 whole entry): as above
Chain of human KHK-A (P50053 other isoform, or with tags, fused parts or gaps): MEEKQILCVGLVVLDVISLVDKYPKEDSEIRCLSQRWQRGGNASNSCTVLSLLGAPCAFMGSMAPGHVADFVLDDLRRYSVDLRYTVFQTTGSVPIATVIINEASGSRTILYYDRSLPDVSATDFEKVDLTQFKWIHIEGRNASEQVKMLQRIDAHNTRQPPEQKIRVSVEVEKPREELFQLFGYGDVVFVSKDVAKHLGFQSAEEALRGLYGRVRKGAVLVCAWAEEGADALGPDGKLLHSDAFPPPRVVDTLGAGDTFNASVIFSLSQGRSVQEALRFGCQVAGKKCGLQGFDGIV

Compound: C[C@H]1CCN1c1nc2c(c(-c3ccc(CO)s3)n1)CCC2 [Example 375, [5-[2-[(2S)-2-methylazetidin-1-yl]-6,7-dihydro-5H-cyclopenta[d]pyrimidin-4-yl]-2-thienyl]methanol]
- IC50 ([1]; ADP-Glo): 0.0182 µM
- IC50 ([2]; ADP-Glo): 0.0303 µM
- EC50 [3]: 0.084 µM

Compound: C[C@H]1CCN1c1nc2c(c(-c3ccc(C(C)(C)O)s3)n1)CCC2 [Example 376, 2-[5-[2-[(2S)-2-methylazetidin-1-yl]-6,7-dihydro-5H-cyclopenta[d]pyrimidin-4-yl]-2-thienyl]propan-2-ol]
- IC50 ([1]; ADP-Glo): 0.0279 µM
- IC50 ([2]; ADP-Glo): 0.0523 µM
- EC50 [3]: 0.0373 µM

Compound: C[C@H]1[C@H](O)CN1c1nc2c(c(-c3ccc(CNS(C)(=O)=O)s3)n1)CCC2 [Example 377, N-[[5-[2-[(2S,3R)-3-hydroxy-2-methyl-azetidin-1-yl]-6,7-dihydro-5H-cyclopenta[d]pyrimidin-4-yl]-2-thienyl]methyl]methanesulfonamide]
- IC50 ([1]; ADP-Glo): 0.0211 µM
- IC50 ([2]; ADP-Glo): 0.0269 µM
- EC50 [3]: 0.0929 µM

Compound: C[C@H]1CCN1c1nc2c(c(-c3cc4c(=O)[nH]ccc4s3)n1)CCC2 [Example 384, 2-[2-[(2S)-2-methylazetidin-1-yl]-6,7-dihydro-5H-cyclopenta[d]pyrimidin-4-yl]-5H-thieno[3,2-c]pyridin-4-one]
- IC50 ([1]; ADP-Glo): 0.0147 µM
- IC50 ([2]; ADP-Glo): 0.0029 µM
- EC50 [3]: 0.0197 µM

Compound: Cc1nc2cc(-c3nc(N4CC[C@@H]4C)nc4c3CCC4)ccc2c(=O)[nH]1 [Example 387, 2-methyl-7-[2-[(2S)-2-methylazetidin-1-yl]-6,7-dihydro-5H-cyclopenta[d]pyrimidin-4-yl]-3H-quinazolin-4-one]
- IC50 ([1]; ADP-Glo): 0.0099 µM
- IC50 ([2]; ADP-Glo): 0.0056 µM
- EC50 [3]: 0.0196 µM

Compound: C[C@H]1[C@H](O)CN1c1nc2c(c(-c3ccc4cnc(O)cc4c3)n1)CCC2 [Example 388, 6-[2-[(2S,3R)-3-hydroxy-2-methyl-azetidin-1-yl]-6,7-dihydro-5H-cyclopenta[d]pyrimidin-4-yl]isoquinolin-3-ol]
- IC50 ([1]; ADP-Glo): 0.0813 µM
- IC50 ([2]; ADP-Glo): 0.0877 µM
- EC50 [3]: 0.403 µM

Compound: C[C@H]1CCN1c1nc2c(c(-c3nc4cc(F)ccc4n3C)n1)CCC2 [Example 390, 5-fluoro-1-methyl-2-[2-[(2S)-2-methylazetidin-1-yl]-6,7-dihydro-5H-cyclopenta[d]pyrimidin-4-yl]benzimidazole]
- IC50 ([1]; ADP-Glo): 2.48 µM
- IC50 ([2]; ADP-Glo): 4.22 µM
- EC50 [3]: 3.33 µM

Compound: C[C@H]1CCN1c1nc2c(c(-c3nc4ccccc4n3C)n1)CCC2 [Example 391, 1-methyl-2-[2-[(2S)-2-methylazetidin-1-yl]-6,7-dihydro-5H-cyclopenta[d]pyrimidin-4-yl]benzimidazole]
- IC50 ([1]; ADP-Glo): 0.915 µM
- IC50 ([2]; ADP-Glo): 2.19 µM
- EC50 [3]: 1.81 µM

Compound: C[C@H]1CCN1c1nc(-c2ccc(C(N)=O)cc2)c2[nH]ncc2n1 [Example 396, (S)-4-(5-(2-methylazetidin-1-yl)-1H-pyrazolo[4,3-d]pyrimidin-7-yl)benzamide]
- IC50 [1]: 0.08 µM
- IC50 [2]: 0.13 µM
- EC50 [3]: 2.51 µM

Compound: C[C@H]1CCN1c1nc2c(c(-c3ccc4c(c3)[C@]3(C[C@H]3c3nc[nH]n3)C(=O)N4)n1)CCC2 [Example 414, (1R,2R)-5′-(2-((S)-2-methylazetidin-1-yl)-6,7-dihydro-5H-cyclopenta[d]pyrimidin-4-yl)-2-(1H-1,2,4-triazol-3-yl)spiro[cyclopropane-1,3′-indolin]-2′-one]
- IC50 [1]: 0.138 µM
- IC50 [2]: 0.397 µM
- EC50 [3]: > 5 µM

Compound: C[C@H]1CCN1c1nc2c(c(-c3cc(C(N)=O)c4ccccc4c3)n1)CCC2 [Example 423, (S)-3-(2-(2-methylazetidin-1-yl)-6,7-dihydro-5H-cyclopenta[d]pyrimidin-4-yl)-1-naphthamide]
- IC50 [1]: 0.0814 µM
- IC50 [2]: 0.0661 µM
- EC50 [3]: 0.239 µM

Compound: C[C@H]1CCN1c1nc2c(c(-c3ccc4c(c3)C(=O)NC(=O)C4)n1)CCC2 [Example 424, (S)-7-(2-(2-methylazetidin-1-yl)-6,7-dihydro-5H-cyclopenta[d]pyrimidin-4-yl)isoquinoline-1,3(2H,4H)-dione]
- IC50 [1]: 0.137 µM
- IC50 [2]: 0.169 µM
- EC50 [3]: 3.51 µM

Compound: C[C@H]1CCN1c1nc2c(c(-c3ccc4[nH]c(=O)[nH]c(=O)c4c3)n1)CCC2 [Example 425, 6-[2-[(2S)-2-methylazetidin-1-yl]-6,7-dihydro-5H-cyclopenta[d]pyrimidin-4-yl]-1H-quinazoline-2,4-dione]
- IC50 [1]: 0.0314 µM
- IC50 [2]: 0.0217 µM
- EC50 [3]: 0.122 µM

Compound: C[C@H]1CCN1c1nc2c(c(-c3ccc4c(=O)[nH]c(=O)[nH]c4c3)n1)CCC2 [Example 426, 7-[2-[(2S)-2-methylazetidin-1-yl]-6,7-dihydro-5H-cyclopenta[d]pyrimidin-4-yl]-1H-quinazoline-2,4-dione]
- IC50 [1]: 0.0401 µM
- IC50 [2]: 0.0179 µM
- EC50 [3]: 0.0928 µM

Compound: C[C@H]1CCN1c1nc2c(c(-c3ccc4c(c3)C3C(C4)C3C(=O)O)n1)CCC2 (stereo partly drawn) [Example 428, 3-[2-[(2S)-2-methylazetidin-1-yl]-6,7-dihydro-5H-cyclopenta[d]pyrimidin-4-yl]-1,1a,6,6a-tetrahydrocyclopropa[a]indene-1-carboxylic acid]
- IC50 [1]: 0.0413 µM
- IC50 [2]: 0.0384 µM
- EC50 [3]: 0.387 µM

Compound: C[C@H]1CCN1c1nc2c(c(-c3ccc4c(=O)[nH][nH]c(=O)c4c3)n1)CCC2 [Example 429, 6-[2-[(2S)-2-methylazetidin-1-yl]-6,7-dihydro-5H-cyclopenta[d]pyrimidin-4-yl]-2,3-dihydrophthalazine-1,4-dione]
- IC50 [1]: 0.0416 µM
- IC50 [2]: 0.0486 µM
- EC50 [3]: 1.73 µM

Compound: NC(=O)c1ccc(-c2nc(N3CCC34CCC4)nc3c2CCC3)cc1 [Example 430, 4-[2-(1-azaspiro[3.3]heptan-1-yl)-6,7-dihydro-5H-cyclopenta[d]pyrimidin-4-yl]benzamide]
- IC50 [1]: 2.12 µM
- IC50 [2]: 3.16 µM
- EC50 [3]: 3.22 µM

Compound: NC(=O)c1ccc(-c2nc(N3CC(O)[C@@H]3Cc3ccccc3)nc3c2CCC3)cc1 (stereo partly drawn) [Example 431, 4-[2-[(2S)-2-benzyl-3-hydroxy-azetidin-1-yl]-6,7-dihydro-5H-cyclopenta[d]pyrimidin-4-yl]benzamide]
- IC50 [1]: 0.513 µM
- IC50 [2]: 0.808 µM
- EC50 [3]: 0.711 µM

Compound: C[C@H]1CCN1c1nc2c(c(-c3cccc4c3CC3C(C(=O)O)C43)n1)CCC2 (stereo partly drawn) [Example 432, 5-[2-[(2S)-2-methylazetidin-1-yl]-6,7-dihydro-5H-cyclopenta[d]pyrimidin-4-yl]-1,1a,6,6a-tetrahydrocyclopropa[a]indene-1-carboxylic acid]
- IC50 [1]: 0.36 µM
- IC50 [2]: 0.323 µM
- EC50 [3]: 2.63 µM

Compound: NC(=O)c1ccc(-c2nc(N3CCC34CCOC4)nc3c2CCC3)cc1 (stereo not drawn) [Example 434, 4-[2-(7-oxa-1-azaspiro[3.4]octan-1-yl)-6,7-dihydro-5H-cyclopenta[d]pyrimidin-4-yl]benzamide]
- IC50 [1]: 1.62 µM
- IC50 [2]: 2.93 µM
- EC50 [3]: 3.31 µM

Compound: C[C@H]1CCN1c1nc2c(c(-c3cccc(C4CC(C(=O)O)C4)c3)n1)CCC2 (stereo partly drawn) [Example 439, 3-[3-[2-[(2S)-2-methylazetidin-1-yl]-6,7-dihydro-5H-cyclopenta[d]pyrimidin-4-yl]phenyl]cyclobutanecarboxylic acid]
- IC50 [1]: 0.0131 µM
- IC50 [2]: 0.0154 µM
- EC50 [3]: 0.123 µM

Compound: C[C@H]1CCN1c1nc2c(c(-c3ccnc(OC(F)F)c3)n1)CCC2 [Example 453, 4-[2-(difluoromethoxy)-4-pyridyl]-2-[(2S)-2-methylazetidin-1-yl]-6,7-dihydro-5H-cyclopenta[d]pyrimidine]
- IC50 [1]: 0.776 µM
- IC50 [2]: 1.01 µM
- EC50 [3]: 1.04 µM

Compound: C[C@H]1CCN1c1nc2c(c(-c3ccc(C4(C(=O)O)CC4)cc3)n1)CCC2 [Example 455, 1-[4-[2-[(2S)-2-methylazetidin-1-yl]-6,7-dihydro-5H-cyclopenta[d]pyrimidin-4-yl]phenyl]cyclopropanecarboxylic acid]
- IC50 [1]: 0.248 µM
- IC50 [2]: 0.497 µM
- EC50 [3]: > 5 µM

Compound: C[C@H]1[C@H](O)CN1c1nc(-c2ccc3c(c2)CCC32CCC(=O)N2)c2c(n1)C(F)(F)CC2 (stereo partly drawn) [Example 636, 5-(7,7-difluoro-2-((2S,3R)-3-hydroxy-2-methylazetidin-1-yl)-6,7-dihydro-5H-cyclopenta[d]pyrimidin-4-yl)-2,3-dihydrospiro[indene-1,2′-pyrrolidin]-5′-one]
- IC50 [1]: 0.0005 µM
- IC50 [2]: 0.0114 µM
- EC50 [3]: 0.013 µM

Compound: COc1c(C)cc(-c2nc(N3C[C@@H](O)[C@@H]3C)nc3c2CCC3(F)F)cc1S(C)(=N)=O (stereo partly drawn) [Example 722, (5-(7,7-difluoro-2-((2S,3R)-3-hydroxy-2-methylazetidin-1-yl)-6,7-dihydro-5H-cyclopenta[d]pyrimidin-4-yl)-2-methoxy-3-methylphenyl)(imino)(methyl)-λ^6-sulfanone]
- IC50 [1]: 0.005 µM
- IC50 [2]: 0.008 µM
- EC50 [3]: 0.0257 µM

Compound: C[C@H]1CCN1c1nc2c(c(-c3ccc4[nH]nnc4c3)n1)CCC2 [Example 729, (S)-5-(2-(2-methylazetidin-1-yl)-6,7-dihydro-5H-cyclopenta[d]pyrimidin-4-yl)-1H-benzo[d][1,2,3]triazole]
- IC50 [1]: 0.0335 µM
- IC50 [2]: 0.0291 µM
- EC50 [3]: 0.273 µM

Compound: NC1(c2ccc(-c3nc(N4CCC4C(F)F)nc4c3CCC4(F)F)cc2)CS(=O)(=O)C1 (stereo not drawn) [Example 799, 3-amino-3-(4-(2-(2-(difluoromethyl)azetidin-1-yl)-7,7-difluoro-6,7-dihydro-5H-cyclopenta[d]pyrimidin-4-yl)phenyl)thietane 1,1-dioxide]
- IC50 ([1]; ADP-Glo): 0.0019 µM
- IC50 ([2]; ADP-Glo): 0.0162 µM
- EC50 [3]: 0.0215 µM

Compound: N#CCC(N)c1ccc(-c2nc(N3CC[C@@H]3C(F)(F)F)nc3c2CCC3(F)F)cc1 (stereo partly drawn) [Example 803, 3-amino-3-(4-(7,7-difluoro-2-((R)-2-(trifluoromethyl)azetidin-1-yl)-6,7-dihydro-5H-cyclopenta[d]pyrimidin-4-yl)phenyl)propanenitrile]
- IC50 ([1]; ADP-Glo): 0.0005 µM
- IC50 ([2]; ADP-Glo): 0.0008 µM
- EC50 [3]: 0.0113 µM
